The test system of the series is CAT protein expression in 76 cells expressing RNA polymerases (PB1, PB2, and PA) and NP protein of influenza A virus (A/PR/8/34). The series is classed as cell-based.

Like-named read-outs stand apart in the source and are kept apart here. Strand notation (5' to 3'): a small letter for the sugar, then the base; units joined by * are phosphorothioate-linked, units joined directly phosphodiester-linked; [ ] holds rarer units or linkages, { } end groups; capitals alone tell only the bases. {m7GpppGm} = cap: 7-methylguanosine 5'-5' triphosphate-linked to 2'-O-methylguanosine; {m7GpppG} = cap: 7-methylguanosine 5'-5' triphosphate-linked to guanosine; r = 2'-OH (RNA)

With “m^7GpppG AAUACUC ({m7GpppG}-rArArUrArCrUrC) [G8]”, the “inhibition of CAT protein expression (in words)” value (“inhibition” for short) (concentration not specified) is given as “significant inhibition”.

In the case of “m^7GpppGmAAUACUC ({m7GpppGm}-rArArUrArCrUrC) [Gm8]”, the “inhibition” value (concentration not specified) was “significant inhibition”.

As to “m^7GpppGmAAUACUCAAACU ({m7GpppGm}-rArArUrArCrUrCrArArArCrU) [Gm13, reference compound]”, the “inhibition” value by setting is: (concentration not specified) “weak inhibition”; (high dose (0.3 μM)) “little inhibition”.
